From patent publication US10227323B2, “Glucosylceramide synthase inhibitors for the treatment of diseases” (BIOMARIN PHARMACEUTICAL INC., priority 2013, dated 2019) come the findings set out here.

The target in one assay is T1, GCS (Canis lupus familiaris, UniProt A0A8I3MXG6).
T1 sequence (A0A8I3MXG6 1-394): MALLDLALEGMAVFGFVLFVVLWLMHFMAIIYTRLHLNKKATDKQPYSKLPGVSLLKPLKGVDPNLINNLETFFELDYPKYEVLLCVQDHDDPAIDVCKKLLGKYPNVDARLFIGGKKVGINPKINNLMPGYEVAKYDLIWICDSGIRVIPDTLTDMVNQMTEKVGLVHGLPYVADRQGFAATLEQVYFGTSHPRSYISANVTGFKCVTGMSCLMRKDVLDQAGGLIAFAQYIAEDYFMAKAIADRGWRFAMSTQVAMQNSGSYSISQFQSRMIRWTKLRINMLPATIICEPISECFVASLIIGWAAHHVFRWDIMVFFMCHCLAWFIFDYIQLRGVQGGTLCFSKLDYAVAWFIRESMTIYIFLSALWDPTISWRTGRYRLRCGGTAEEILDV
In words: Assay 1: GCS Enzymatic Assay (MDCK cell lysate, C6-NBD-Ceramide, LC/MS). The assay is classed as biochemical, canine. To be noted: Table 1; MDCK cell lysate; read-out: IC50 (nM) generated from Assay 1. The gist of the method:
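LC/MS/MS measurement of glucosylceramide and NBD-ceramide after a 1 h, 37 °C reaction with 100 μM UDP-glucose and 10 μM C6-NBD-ceramide gave IC50s or percent inhibition.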
On to `O=C(N[C@H](CN1CCCC1)[C@H](O)c1ccc(OC2CC2)c(Cl)c1)C(F)(F)c1cc2cc(C(F)(F)F)ccc2o1` [Compound 69, N-((1R,2R)-1-(3-chloro-4-cyclopropoxyphenyl)-1-hydroxy-3-(pyrrolidin-1-yl)propan-2-yl)-2,2-difluoro-2-(5-(trifluoromethyl)benzofuran-2-yl)acetamide], for which the IC50 – broadly, the concentration at which inhibition is half-maximal – is < 50 nM. As for `O=C(N[C@H](CN1CCCC1)[C@@H](O)c1ccc(OC2CC2)c(Cl)c1)C(F)(F)c1cc2cc(C(F)(F)F)ccc2o1` [Compound 69A, N-((1S,2R)-1-(3-chloro-4-cyclopropoxyphenyl)-1-hydroxy-3-(pyrrolidin-1-yl)propan-2-yl)-2,2-difluoro-2-(5-(trifluoromethyl)benzofuran-2-yl)acetamide], the half-inhibitory concentration (IC50) was 50 to 5000 nM.

Take `O=C(N[C@H](CN1CCCC1)[C@H](O)c1ccc2c(c1)OCCO2)C(=O)C1Cc2ccccc2C1` [Compound 70, 2-(2,3-dihydro-1H-inden-2-yl)-N-((1R,2R)-1-(2,3-dihydrobenzo[b][1,4]dioxin-6-yl)-1-hydroxy-3-(pyrrolidin-1-yl)propan-2-yl)-2-oxoacetamide]: the concentration for half-maximal inhibition (IC50) was < 50 nM. Turning to `O=C(N[C@H](CN1CCCC1)[C@H](O)c1ccc2c(c1)OCCO2)C(=O)c1cc2cc(Cl)ccc2o1` [Compound 71, 2-(5-chlorobenzofuran-2-yl)-N-((1R,2R)-1-(2,3-dihydrobenzo[b][1,4]dioxin-6-yl)-1-hydroxy-3-(pyrrolidin-1-yl)propan-2-yl)-2-oxoacetamide], the IC50 was < 50 nM. Same read-out and setting: the result for `O=C(N[C@H](CN1CCCC1)[C@H](O)c1ccc2c(c1)OCCO2)/C(=N/O)c1cc2cc(Cl)ccc2o1` [Compound 72, (E)-2-(5-chlorobenzofuran-2-yl)-N-((1R,2R)-1-(2,3-dihydrobenzo[b][1,4]dioxin-6-yl)-1-hydroxy-3-(pyrrolidin-1-yl)propan-2-yl)-2-(hydroxyimino)acetamide] reads < 50 nM; that for `O=C(N[C@H](CN1CCCC1)[C@H](O)c1ccc2c(c1)OCCO2)C(=O)C1Cc2ccc(-c3ccccn3)cc2C1` (stereo partly drawn) [Compound 73, N-((1R,2R)-1-(2,3-dihydrobenzo[b][1,4]dioxin-6-yl)-1-hydroxy-3-(pyrrolidin-1-yl)propan-2-yl)-2-oxo-2-(5-(pyridin-2-yl)-2,3-dihydro-1H-inden-2-yl)acetamide], < 50 nM. On the same count and under the same terms, in the case of `O=C(N[C@H](CN1CCCC1)[C@H](O)c1ccc2c(c1)OCCO2)C(=O)C1Cc2ccc(Cl)cc2C1` (stereo partly drawn) [Compound 74, 2-(5-chloro-2,3-dihydro-1H-inden-2-yl)-N-((1R,2R)-1-(2,3-dihydrobenzo[b][1,4]dioxin-6-yl)-1-hydroxy-3-(pyrrolidin-1-yl)propan-2-yl)-2-oxoacetamide] it was < 50 nM.

Staying with this assay, now noted: Table 1; values marked *; MDCK cell lysate.
Take `O=C(N[C@H](CN1CCCC1)[C@H](O)c1cc2cc(Cl)ccc2o1)C(F)(F)c1cc2cc(Cl)ccc2o1` [Compound 68, 2-(5-chlorobenzofuran-2-yl)-N-((1S,2R)-1-(5-chlorobenzofuran-2-yl)-1-hydroxy-3-(pyrrolidin-1-yl)propan-2-yl)-2,2-difluoroacetamide]: the “% inhibition generated from Assay 1” value is reported as “B* (the compound had a % inhibition of greater than or equal to about 3% but less than about 50%)”. As to `O=C(N[C@H](CN1CCCC1)[C@@H](O)c1cc2cc(Cl)ccc2o1)C(F)(F)c1cc2cc(Cl)ccc2o1` [Compound 68G, 2-(5-chlorobenzofuran-2-yl)-N-((1R,2R)-1-(5-chlorobenzofuran-2-yl)-1-hydroxy-3-(pyrrolidin-1-yl)propan-2-yl)-2,2-difluoroacetamide], the “% inhibition generated from Assay 1” value was “B* (the compound had a % inhibition of greater than or equal to about 3% but less than about 50%)”.

Staying with this assay, now noted: Table 2; data marked by *.
In the case of `O=C(N[C@H](CN1CCCC1)[C@H](O)c1ccc2c(c1)OCCO2)C(=O)c1[nH]cc2c1CCCC2` [Compound 77, N-((1R,2R)-1-(2,3-dihydrobenzo[b][1,4]dioxin-6-yl)-1-hydroxy-3-(pyrrolidin-1-yl)propan-2-yl)-2-oxo-2-(4,5,6,7-tetrahydro-2H-isoindol-1-yl)acetamide], the “% inhibition generated from Assay 1” value is “B* (the compound had a % inhibition of greater than or equal to about 3% but less than about 50%)”. Take `O=C(N[C@H](CN1CCCC1)[C@H](O)c1ccc(OCC(F)(F)F)nc1)C(F)(F)CCc1ccc2cc(F)ccc2c1` [Compound 88, 2,2-difluoro-4-(6-fluoronaphthalen-2-yl)-N-((1R,2R)-1-hydroxy-3-(pyrrolidin-1-yl)-1-(6-(2,2,2-trifluoroethoxy)pyridin-3-yl)propan-2-yl)butanamide]: the “% inhibition generated from Assay 1” value is listed as “A* (the compound had a % inhibition of a percent inhibition of greater than or equal to about 50%)”.

On to `O=C(N[C@H](CN1CCCC1)[C@H](O)c1ccc(OCC(F)(F)F)nc1)C(F)(F)C1Cc2ccc(Cl)cc2C1` (stereo partly drawn) [Compound 91, 2-(5-chloro-2,3-dihydro-1H-inden-2-yl)-2,2-difluoro-N-((1R,2R)-1-hydroxy-3-(pyrrolidin-1-yl)-1-(6-(2,2,2-trifluoroethoxy)pyridin-3-yl)propan-2-yl)acetamide], for which the “% inhibition generated from Assay 1” value is “B* (the compound had a % inhibition of greater than or equal to about 3% but less than about 50%)”.

The same assay, now with this note: Table 2; data without asterisk; read-out: IC50 (nM) generated from Assay 1.
Take `O=C(N[C@H](CN1CCC1)[C@H](O)c1ccc2c(c1)OCCO2)C(=O)c1cc2cc(Cl)ccc2o1` [Compound 78, N-((1R,2R)-3-(azetidin-1-yl)-1-(2,3-dihydrobenzo[b][1,4]dioxin-6-yl)-1-hydroxypropan-2-yl)-2-(5-chlorobenzofuran-2-yl)-2-oxoacetamide]: the IC50 was < 50 nM.

Turning to `O=C(N[C@H](CN1CCCC1)[C@H](O)c1ccc(OC2CC2)c(Cl)c1)C(=O)c1cc2cc(Cl)ccc2o1` [Compound 79, N-((1R,2R)-1-(3-chloro-4-cyclopropoxyphenyl)-1-hydroxy-3-(pyrrolidin-1-yl)propan-2-yl)-2-(5-chlorobenzofuran-2-yl)-2-oxoacetamide], the 50% inhibitory concentration (IC50) was < 50 nM. Take `O=C(N[C@H](CN1CCCC1)[C@H](O)c1ccc(OC2CC2)c(Cl)c1)C(F)(F)CCc1ccc2cc(F)ccc2c1` [Compound 82, N-((1R,2R)-1-(3-chloro-4-cyclopropoxyphenyl)-1-hydroxy-3-(pyrrolidin-1-yl)propan-2-yl)-2,2-difluoro-4-(6-fluoronaphthalen-2-yl)butanamide]: the IC50 is < 50 nM. Same read-out and setting: the result for `O=C(N[C@H](CN1CCC1)[C@H](O)c1cc(F)c2c(c1)OCCO2)C(F)(F)c1cc2cc(Cl)ccc2o1` [Compound 83, N-((1R,2R)-3-(azetidin-1-yl)-1-(8-fluoro-2,3-dihydrobenzo[b][1,4]dioxin-6-yl)-1-hydroxypropan-2-yl)-2-(5-chlorobenzofuran-2-yl)-2,2-difluoroacetamide] reads < 50 nM; that for `O=C(N[C@H](CN1CCCC1)[C@H](O)c1ccc2c(c1)OCCO2)C(F)(F)CCc1ccc2cc(F)ccc2c1` [Compound 84, N-((1R,2R)-1-(2,3-dihydrobenzo[b][1,4]dioxin-6-yl)-1-hydroxy-3-(pyrrolidin-1-yl)propan-2-yl)-2,2-difluoro-4-(6-fluoronaphthalen-2-yl)butanamide], < 50 nM; that for `O=C(N[C@H](CN1CCCC1)[C@H](O)c1ccc(OCC(F)(F)F)nc1)C(F)(F)c1cc2cc(Cl)ccc2o1` [Compound 85, 2-(5-chlorobenzofuran-2-yl)-2,2-difluoro-N-((1R,2R)-1-hydroxy-3-(pyrrolidin-1-yl)-1-(6-(2,2,2-trifluoroethoxy)pyridin-3-yl)propan-2-yl)acetamide], < 50 nM. Turning to `O=C(N[C@H](CN1CCC1)[C@H](O)c1cc(F)c2c(c1)OCCO2)C(F)(F)CCc1ccc2cc(F)ccc2c1` [Compound 86, N-((1R,2R)-3-(azetidin-1-yl)-1-(8-fluoro-2,3-dihydrobenzo[b][1,4]dioxin-6-yl)-1-hydroxypropan-2-yl)-2,2-difluoro-4-(6-fluoronaphthalen-2-yl)butanamide], the IC50 was < 50 nM.

As to `O=C(N[C@H](CN1CCCC1)[C@H](O)c1cc(F)c2c(c1)OCCO2)C(F)(F)CCc1ccc2cc(F)ccc2c1` [Compound 87, 2,2-difluoro-N-((1R,2R)-1-(8-fluoro-2,3-dihydrobenzo[b][1,4]dioxin-6-yl)-1-hydroxy-3-(pyrrolidin-1-yl)propan-2-yl)-4-(6-fluoronaphthalen-2-yl)butanamide], the IC50 was < 50 nM.

As for `O=C(N[C@H](CN1CCC1)[C@H](O)c1cc(F)c2c(c1)OCCO2)C(=O)c1cc2cc(Cl)ccc2o1` [Compound 89, N-((1R,2R)-3-(azetidin-1-yl)-1-(8-fluoro-2,3-dihydrobenzo[b][1,4]dioxin-6-yl)-1-hydroxypropan-2-yl)-2-(5-chlorobenzofuran-2-yl)-2-oxoacetamide], the half-maximal inhibitory concentration (IC50) was < 50 nM.

As to `O=C(CCc1ccc2cc(F)ccc2c1)C(=O)N[C@H](CN1CCCC1)[C@H](O)c1ccc2c(c1)OCCO2` [Compound 90, N-((1R,2R)-1-(2,3-dihydrobenzo[b][1,4]dioxin-6-yl)-1-hydroxy-3-(pyrrolidin-1-yl)propan-2-yl)-4-(6-fluoronaphthalen-2-yl)-2-oxobutanamide], the IC50 was < 50 nM. On to `O=C(N[C@H](CN1CCC1)[C@H](O)c1cc(F)c2c(c1)OCCO2)C(F)(F)C1Cc2ccc(Cl)cc2C1` (stereo partly drawn) [Compound 92, N-((1R,2R)-3-(azetidin-1-yl)-1-(8-fluoro-2,3-dihydrobenzo[b][1,4]dioxin-6-yl)-1-hydroxypropan-2-yl)-2-(5-chloro-2,3-dihydro-1H-inden-2-yl)-2,2-difluoroacetamide], for which the IC50 was < 50 nM.
